{"source": "patent US10285979B2", "about": "“Breast cancer therapeutic agent containing 5′-hydroxy-5-nitro-indirubin-3′-oxime as active ingredient” (ANYGEN CO., LTD., priority 2016, dated 2019)", "key": {"HOP-92": {"tested_on": "HOP-92", "conditions": "10 μM; non-small cell lung cancer cell line HOP-92", "from_the_text": "(§1) If the growth percent is 0%, it means that no further growth of cancer cells occurs, which is an ideal case."}, "OVCAR-8": {"tested_on": "OVCAR-8", "conditions": "10 μM; ovarian cancer cell line OVCAR-8", "from_the_text": "as §1"}, "SR": {"tested_on": "SR", "conditions": "10 μM; leukemia cell line SR", "from_the_text": "as §1"}, "SN12C": {"tested_on": "SN12C", "conditions": "10 μM; renal cell carcinoma cell line SN12C", "from_the_text": "as §1"}, "UO-31": {"tested_on": "UO-31", "conditions": "10 μM; renal cell carcinoma cell line UO-31", "from_the_text": "as §1"}, "LOX IMVI": {"tested_on": "LOX IMVI", "conditions": "10 μM; malignant melanoma cell line LOX IMVI", "from_the_text": "as §1"}, "TK-10": {"tested_on": "TK-10", "conditions": "10 μM; renal cell carcinoma cell line TK-10", "from_the_text": "as §1"}, "U251": {"tested_on": "U251", "conditions": "10 μM; CNS cancer cell line U251", "from_the_text": "as §1"}, "NCI-H522": {"tested_on": "NCI-H522", "conditions": "10 μM; non-small cell lung cancer cell line NCI-H522", "from_the_text": "as §1"}, "MDA-MB-435": {"tested_on": "MDA-MB-435", "conditions": "10 μM; malignant melanoma cell line MDA-MB-435", "from_the_text": "as §1"}, "SK-MEL-4": {"tested_on": "SK-MEL-4", "conditions": "10 μM; malignant melanoma cell line SK-MEL-4", "from_the_text": "as §1"}, "PC-3": {"tested_on": "PC-3", "conditions": "10 μM; prostate cancer cell line PC-3", "from_the_text": "as §1"}, "COLO 205": {"tested_on": "COLO 205", "conditions": "10 μM; colorectal cancer cell line COLO 205", "from_the_text": "as §1"}, "SNB-75": {"tested_on": "SNB-75", "conditions": "10 μM; CNS cancer cell line SNB-75", "from_the_text": "as §1"}, "UACC-257": {"tested_on": "UACC-257", "conditions": "10 μM; malignant melanoma cell line UACC-257", "from_the_text": "as §1"}, "SF-268": {"tested_on": "SF-268", "conditions": "10 μM; CNS cancer cell line SF-268", "from_the_text": "as §1"}, "OVCAR-5": {"tested_on": "OVCAR-5", "conditions": "10 μM; ovarian cancer cell line OVCAR-5", "from_the_text": "as §1"}, "HCT-116": {"tested_on": "HCT-116", "conditions": "10 μM; colorectal cancer cell line HCT-116", "from_the_text": "as §1"}, "HS 578T": {"tested_on": "HS 578T", "conditions": "10 μM; breast cancer cell line HS 578T", "from_the_text": "as §1"}, "T-47D": {"tested_on": "T-47D", "conditions": "10 μM; breast cancer cell line T-47D", "from_the_text": "as §1"}, "HOP-62": {"tested_on": "HOP-62", "conditions": "10 μM; non-small cell lung cancer cell line HOP-62", "from_the_text": "as §1"}, "MOLT-4": {"tested_on": "MOLT-4", "conditions": "10 μM; leukemia cell line MOLT-4", "from_the_text": "as §1"}, "UACC-62": {"tested_on": "UACC-62", "conditions": "10 μM; malignant melanoma cell line UACC-62", "from_the_text": "as §1"}, "OVCAR-4": {"tested_on": "OVCAR-4", "conditions": "10 μM; ovarian cancer cell line OVCAR-4", "from_the_text": "as §1"}, "IGROV1": {"tested_on": "IGROV1", "conditions": "10 μM; ovarian cancer cell line IGROV1", "from_the_text": "as §1"}, "KM12": {"tested_on": "KM12", "conditions": "10 μM; colorectal cancer cell line KM12", "from_the_text": "as §1"}, "BT-549": {"tested_on": "BT-549", "conditions": "10 μM; breast cancer cell line BT-549", "from_the_text": "as §1"}, "MDA-MB-231": {"tested_on": "MDA-MB-231", "conditions": "10 μM; breast cancer cell line MDA-MB-231", "from_the_text": "as §1"}, "M14": {"tested_on": "M14", "conditions": "10 μM; malignant melanoma cell line M14", "from_the_text": "as §1"}, "SNB-19": {"tested_on": "SNB-19", "conditions": "10 μM; CNS cancer cell line SNB-19", "from_the_text": "as §1"}, "SF-539": {"tested_on": "SF-539", "conditions": "10 μM; CNS cancer cell line SF-539", "from_the_text": "as §1"}, "HCT-15": {"tested_on": "HCT-15", "conditions": "10 μM; colorectal cancer cell line HCT-15", "from_the_text": "as §1"}, "SK-MEL-2": {"tested_on": "SK-MEL-2", "conditions": "10 μM; malignant melanoma cell line SK-MEL-2", "from_the_text": "as §1"}, "NCI-H226": {"tested_on": "NCI-H226", "conditions": "10 μM; non-small cell lung cancer cell line NCI-H226", "from_the_text": "as §1"}, "CCRE-CEM": {"tested_on": "CCRE-CEM", "conditions": "10 μM; leukemia cell line CCRE-CEM", "from_the_text": "as §1"}, "ACHN": {"tested_on": "ACHN", "conditions": "10 μM; renal cell carcinoma cell line ACHN", "from_the_text": "as §1"}, "SK-MEL-28": {"tested_on": "SK-MEL-28", "conditions": "10 μM; malignant melanoma cell line SK-MEL-28", "from_the_text": "as §1"}, "NCI/ADR/RES": {"tested_on": "NCI/ADR/RES", "conditions": "10 μM; ovarian cancer cell line NCI/ADR/RES", "from_the_text": "as §1"}, "NCI-H460": {"tested_on": "NCI-H460", "conditions": "10 μM; non-small cell lung cancer cell line NCI-H460", "from_the_text": "as §1"}, "786-0": {"tested_on": "786-0", "conditions": "10 μM; renal cell carcinoma cell line 786-0", "from_the_text": "as §1"}, "RPMI-8226": {"tested_on": "RPMI-8226", "conditions": "10 μM; leukemia cell line RPMI-8226", "from_the_text": "as §1"}, "[1]": {"tested_on": "Imatinib-resistant K562 cells", "conditions": "in vitro and in vivo systems; cited from earlier work"}}}
{"smiles": "O=C1Nc2ccc([N+](=O)[O-])cc2C1=C1Nc2ccc(O)cc2C1=NO", "note": "[AGM-130, (2′Z 3′E)-5′-hydroxy-5-nitro indirubin oxime]", "values": [{"measurement": "Growth percent", "setting": "HOP-92", "value": "−3.09", "unit": "%"}, {"measurement": "Growth percent", "setting": "OVCAR-8", "value": 7.71, "unit": "%"}, {"measurement": "Growth percent", "setting": "SR", "value": 0.38, "unit": "%"}, {"measurement": "Growth percent", "setting": "SN12C", "value": 23.68, "unit": "%"}, {"measurement": "Growth percent", "setting": "UO-31", "value": "−1.14", "unit": "%"}, {"measurement": "Growth percent", "setting": "LOX IMVI", "value": "−32.44", "unit": "%"}, {"measurement": "Growth percent", "setting": "TK-10", "value": 49.89, "unit": "%"}, {"measurement": "Growth percent", "setting": "U251", "value": 0.60, "unit": "%"}, {"measurement": "Growth percent", "setting": "NCI-H522", "value": "−79.07", "unit": "%"}, {"measurement": "Growth percent", "setting": "MDA-MB-435", "value": 9.35, "unit": "%"}, {"measurement": "Growth percent", "setting": "SK-MEL-4", "value": "−40.95", "unit": "%"}, {"measurement": "Growth percent", "setting": "PC-3", "value": 2.12, "unit": "%"}, {"measurement": "Growth percent", "setting": "COLO 205", "value": 65.80, "unit": "%"}, {"measurement": "Growth percent", "setting": "SNB-75", "value": "−28.05", "unit": "%"}, {"measurement": "Growth percent", "setting": "UACC-257", "value": 9.29, "unit": "%"}, {"measurement": "Growth percent", "setting": "SF-268", "value": 6.50, "unit": "%"}, {"measurement": "Growth percent", "setting": "OVCAR-5", "value": 11.33, "unit": "%"}, {"measurement": "Growth percent", "setting": "HCT-116", "value": 2.29, "unit": "%"}, {"measurement": "Growth percent", "setting": "HS 578T", "value": 1.21, "unit": "%"}, {"measurement": "Growth percent", "setting": "T-47D", "value": 16.80, "unit": "%"}, {"measurement": "Growth percent", "setting": "HOP-62", "value": "−9.77", "unit": "%"}, {"measurement": "Growth percent", "setting": "MOLT-4", "value": 2.17, "unit": "%"}, {"measurement": "Growth percent", "setting": "UACC-62", "value": "−34.39", "unit": "%"}, {"measurement": "Growth percent", "setting": "OVCAR-4", "value": 19.65, "unit": "%"}, {"measurement": "Growth percent", "setting": "IGROV1", "value": 6.36, "unit": "%"}, {"measurement": "Growth percent", "setting": "KM12", "value": "−32.96", "unit": "%"}, {"measurement": "Growth percent", "setting": "BT-549", "value": 4.59, "unit": "%"}, {"measurement": "Growth percent", "setting": "MDA-MB-231", "value": 25.45, "unit": "%"}, {"measurement": "Growth percent", "setting": "M14", "value": 11.37, "unit": "%"}, {"measurement": "Growth percent", "setting": "SNB-19", "value": 17.47, "unit": "%"}, {"measurement": "Growth percent", "setting": "SF-539", "value": "−34.15", "unit": "%"}, {"measurement": "Growth percent", "setting": "HCT-15", "value": 10.28, "unit": "%"}, {"measurement": "Growth percent", "setting": "SK-MEL-2", "value": "−55.01", "unit": "%"}, {"measurement": "Growth percent", "setting": "NCI-H226", "value": "−4.70", "unit": "%"}, {"measurement": "Growth percent", "setting": "CCRE-CEM", "value": 0.49, "unit": "%"}, {"measurement": "Growth percent", "setting": "ACHN", "value": "−25.79", "unit": "%"}, {"measurement": "Growth percent", "setting": "SK-MEL-28", "value": "−11.04", "unit": "%"}, {"measurement": "Growth percent", "setting": "NCI/ADR/RES", "value": 42.05, "unit": "%"}, {"measurement": "Growth percent", "setting": "NCI-H460", "value": "−28.47", "unit": "%"}, {"measurement": "Growth percent", "setting": "786-0", "value": 4.21, "unit": "%"}, {"measurement": "Growth percent", "setting": "RPMI-8226", "value": "−7.92", "unit": "%"}, {"measurement": "viability of cells", "setting": "[1]", "value": "efficiently decreases the viability"}]}
